Test results taken from PubChem BioAssay (NCI).
Values joined by “and” are separate entries in the source; they are usually repeats but may differ in a detail not shown here. Equal entries are not always repeated.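 Compound exposure: 48 hours, 5 concentrations, 96-well plates. Abbreviation: GI50, concentration required for 50% inhibition of growth. Definition used: TGI = concentration required for complete inhibition of growth.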

Key:
Assay in all cases: NCI anticancer screen, dose series, 48 h
A498 renal = tested on: A498 renal
M14 melanoma = tested on: M14 melanoma
HT29 colon = tested on: HT29 colon
COLO 205 colon = tested on: COLO 205 colon
HCT-116 colon = tested on: HCT-116 colon
KM12 colon = tested on: KM12 colon
EKVX NSCLC = tested on: EKVX NSCLC
UO-31 renal = tested on: UO-31 renal
CAKI-1 renal = tested on: CAKI-1 renal
A549 NSCLC = tested on: A549 NSCLC

Compound	TGI (A498 renal) [µM]	TGI (M14 melanoma)	TGI (HT29 colon)	TGI (COLO 205 colon) [µM]	TGI (HCT-116 colon)	TGI (KM12 colon)	TGI (EKVX NSCLC)	TGI (UO-31 renal)	TGI (CAKI-1 renal)	TGI (A549 NSCLC)	GI50 (A498 renal) [µM]	GI50 (M14 melanoma)	GI50 (HT29 colon)	GI50 (COLO 205 colon) [µM]	GI50 (HCT-116 colon)	GI50 (KM12 colon)	GI50 (EKVX NSCLC)	GI50 (UO-31 renal)	GI50 (CAKI-1 renal)	GI50 (A549 NSCLC)
CNC1=C(C)C(=O)C(C)=C(C(C)(C)CC(=O)n2cc(F)c(=O)[nH]c2=O)C1=O	> 100	> 100 µM	> 100 µM	> 100	> 100 µM	> 100 µM	> 100 µM	> 100 µM	> 100 µM	> 100 µM										
C#CCOCn1cnc2ncnc(Cl)c21	> 100	> 100 µM	> 100 µM	> 100	> 100 µM	> 100 µM	> 100 µM	> 100 µM	> 100 µM	> 100 µM										
COc1cc(C)c(C(=O)/C=C/c2cc(OC)c(O)c(OC)c2)cc1O	97.5	29.9 µM	> 100 µM	> 100	27 µM	50 µM	> 100 µM	57.5 µM	> 100 µM	> 100 µM										
COc1cc(C2[C@H]3C(=O)N(c4ccc(Cc5ccc(N6C(=O)[C@@H]7ON(c8ccccc8)C(c8cc(OC)c(OC)c(OC)c8)[C@@H]7C6=O)cc5)cc4)C(=O)[C@H]3ON2c2ccccc2)cc(OC)c1OC (some centres undefined)	> 100	48.6 µM	> 100 µM	> 100	> 100 µM	> 100 µM	> 100 µM	> 100 µM	> 100 µM	> 100 µM										
C[C@@H]1CN(Cc2ccc(/C=C/c3n[nH]c4ccc5nc(-c6cn[nH]c6C(F)(F)F)c6c(c5c34)CCCC6)cc2)C[C@H](C)O1	6.51	14.6 µM	7.82 µM	12	11.3 µM	14.3 µM	17.3 µM	14 µM	11.5 µM	15 µM	1.21	3.19 µM	2.77 µM	3.21	1.37 µM	2.03 µM	3.7 µM	2.15 µM	2.29 µM	2.56 µM
Clc1ccccc1-c1nc2ccccc2[nH]1	> 100	> 100 µM	> 100 µM	> 100	> 100 µM	> 100 µM	> 100 µM	> 100 µM	> 100 µM	> 100 µM	59.2	> 100 µM	> 100 µM	> 100	> 100 µM	85.2 µM	> 100 µM	90.8 µM	> 100 µM	> 100 µM
NC1=CC(=O)C(=O)c2cccnc21	22.7	6.29 µM	38.7 µM	30.1	12.5 µM	25.8 µM	26.1 µM	17.7 µM	31.2 µM	15.5 µM	10.2	1.83 µM	15.1 µM	16.6	3 µM	12 µM	12.5 µM	2.48 µM	8.45 µM	3.55 µM
CSc1nc2c(nc(N)n2C2OCC(O)C(O)C2O)c(=O)[nH]1 (centres undefined)	> 100	> 100 µM	> 100 µM	> 100	> 100 µM	> 100 µM	> 100 µM	> 100 µM	> 100 µM	> 100 µM										
COc1ccc(N2CCN(CC(=O)N3CCN(c4nnc(-c5ccccc5)c(-c5ccccc5)n4)CC3)CC2)cc1	85.6	> 100 µM	11.3 µM	13.7	38.6 µM	> 100 µM	> 100 µM	> 90.6 µM	> 100 µM	> 100 µM	3.35	17 µM	3.19 µM	3.25	3.96 µM	5.67 µM	4.47 µM	3.94 µM	11.6 µM	16.2 µM
COc1cc(C(=O)/C=C/c2c(-c3ccc(F)cc3)nc3sccn23)cc(OC)c1OC	6.16	9.44 µM	6.11 µM	6.98	8.75 µM	6.27 µM	> 100 µM	> 27 µM	> 30 µM	> 21.1 µM	2.35	2.33 µM	2.53 µM	2.27	2.31 µM	2.24 µM	3.03 µM	2.87 µM	0.405 µM	2.54 µM
COc1cc(/C=C/C(=O)c2c(C)n([O-])c3cc(C)c(C)cc3[n+]2=O)cc(OC)c1OC	37.7	60.2 µM	34.7 µM	67.4	38.3 µM	32.6 µM	42.1 µM	32.3 µM	29.6 µM		12.1	16.1 µM	18.6 µM	20.7	8.08 µM	13.1 µM	18 µM	15.4 µM	10.8 µM	
CC12C=CC(C)(O1)C1C2c2ccccc2S1(=O)=O (centres undefined)	> 100	> 100 µM	> 100 µM	> 100	> 100 µM	> 100 µM	> 100 µM	> 100 µM	> 100 µM	> 100 µM	> 100	25 µM	> 100 µM	> 100	47.9 µM	> 100 µM	92.9 µM	> 100 µM	82 µM	> 100 µM
COc1ccc(-c2nnc3n(C)c(=O)c4ccccc4n23)cc1O	36.6	25.9 µM	43.6 µM	21.1	> 50.3 µM	> 100 µM	> 100 µM	> 100 µM	> 100 µM	> 100 µM	6.42	0.127 µM	3.94 µM	3.36	0.161 µM	0.152 µM	14.1 µM	2.13 µM	1.06 µM	2.29 µM
COc1cc(NCC(C#N)C#N)ccc1N=Nc1ccc([N+](=O)[O-])cc1	> 100	> 100 µM	> 100 µM	> 100	> 100 µM	> 100 µM	> 100 µM	> 100 µM	> 100 µM	> 100 µM										
COc1ccc(C(=O)Nc2ncc(Cc3ccc(F)cc3)s2)cc1	0.0898	> 100 µM	> 100 µM		> 100 µM	6.2 µM	> 100 µM	> 100 µM	30.7 µM	> 100 µM	0.0204	0.0378 µM	0.0438 µM	0.0584	0.0519 µM	0.0408 µM	0.383 µM	0.908 µM	0.0446 µM	0.0678 µM
NNC(=O)CC(=O)Nc1ccccc1F	> 100	> 100 µM	> 100 µM	> 100	> 100 µM	> 100 µM	> 100 µM	> 100 µM	> 100 µM	> 100 µM										
COc1ccc2nc(-c3ccccc3)cc(Nc3ccc(/C(C)=N/O)cc3)c2c1	4.98	2.78 µM	> 100 µM	> 100	2.85 µM	> 100 µM	> 100 µM	> 100 µM		32 µM	2.03	1.46 µM	2.7 µM	4.91	1.52 µM	3.74 µM	3.02 µM	41.3 µM	2.5 µM	3.42 µM
Cn1c2ccccc2c2cc(-c3ccccc3)c3c(c21)C(=O)C=CC3=O	48.7	47.9 µM	42.7 µM	35.1	41.4 µM	42.2 µM	> 100 µM	42.9 µM	39.3 µM	> 100 µM										
O=C1C2C(C(=O)[N]1[Hg][c]1ccccc1)C1(Cl)C(Cl)=C(Cl)C2(Cl)C1(Cl)Cl (centres undefined)	11.9	2.43 µM	4.25 µM	2.05	2.87 µM	21.5 µM	25.2 µM	3.57 µM	4.99 µM	25 µM	2.45	1.16 µM	1.81 µM	0.809	1.54 µM	8.7 µM	6.91 µM	1.73 µM	1.67 µM	9.84 µM
Cc1sc2nc(-c3ccccn3)c(/C=N/N=C(N)N)n2c1C	24.4	12.1 µM	> 17.4 µM	11.4	9.74 µM	15.6 µM	19.8 µM	20.9 µM	18.3 µM	45 µM	11.8	7.28 µM	5.68 µM	4.97	4.09 µM	7.85 µM	8.63 µM	8.94 µM	9.11 µM	12.6 µM
O=C1OCC2=C1C(c1cccc(F)c1)c1cc3c(cc1N2CCO)OCCO3 (centres undefined)	0.438	> 50 µM	> 50 µM	7.43	> 50 µM	> 50 µM	> 50 µM	> 50 µM	> 50 µM	> 50 µM	0.111	0.105 µM	0.178 µM	0.204	0.204 µM	0.172 µM	0.306 µM	0.276 µM	0.144 µM	0.32 µM
N/C(=N\OC(=O)NC(Cl)=C(Cl)Cl)c1cc(C(F)(F)F)cc(C(F)(F)F)c1	32.3	70.4 µM	34.4 µM	33.4	35.5 µM	31.1 µM	27 µM	33.9 µM	33.8 µM	30.4 µM										
CC1=C[C@H]2c3c(c(O)c(O)c4oc5cc(O)cc(O)c5c(=O)c34)[C@H](c3cc(O)c(O)c4oc5cc(O)cc(O)c5c(=O)c34)[C@H]2C(C)(C)C1	4.63	5.19 µM and 4.93 µM	5.74 µM and 12 µM	7.33	1.87 µM and 2.22 µM	3.02 µM and 3.57 µM	13.7 µM and 8.53 µM	3.28 µM and 8.22 µM	11.1 µM and 6.53 µM	6.17 µM and 24.9 µM	1.89	1.59 µM and 1.62 µM	1.49 µM and 2.96 µM	2.65	0.462 µM and 0.947 µM	1.04 µM and 1.51 µM	2.67 µM and 2.2 µM	1.38 µM and 1.55 µM	3.45 µM and 2.18 µM	0.686 µM and 1.67 µM
O=C(Cc1ccccc1)Nc1nnc(CCSCCc2nnc(NC(=O)Cc3ccccc3)s2)s1	31.9	> 100 µM	> 100 µM	> 100	> 100 µM	> 100 µM	> 100 µM	> 100 µM	66 µM	> 100 µM	0.696	12.6 µM	> 100 µM	> 100	59.8 µM	4.61 µM	> 100 µM	81.8 µM	11.7 µM	0.541 µM
OC(COc1ccc(Cl)cc1Cl)CN1CCCC1 (centres undefined)	> 100	41.1 µM	69.9 µM	> 100	> 100 µM	> 100 µM	> 100 µM	> 100 µM	> 100 µM	> 100 µM										
CC(=O)NNC(=O)c1nn(-c2ccc(Cl)cc2)cc1OC(C)=O	91.7	49.7 µM	> 93.4 µM	> 100	> 100 µM	> 100 µM	> 100 µM	> 86.8 µM	82.6 µM	> 100 µM	22.2	14.2 µM	42.4 µM	39.1	14.6 µM	43.7 µM	23.7 µM	17.5 µM	9.3 µM	18.8 µM
CC1OC(OC2C(OC3C[C@@]4(C)C(C[C@H](O)[C@H]5[C@H](C6(C)CCC(C(C)(C)O)O6)CCC54C)[C@]4(C)CC[C@@H](O)C(C)(C)C34)OC(CO)C(O)C2O)C(O)C(O)C1O (some centres undefined) (tested in a mixture with another compound)	> 100	> 100 µM	> 100 µM	> 100	> 100 µM	> 100 µM	> 100 µM	> 100 µM	> 100 µM	> 100 µM										
Cc1cc[c-]cc1.Fc1c[c-]c(-c2ccccn2)c(F)c1.N#CCC[PH+](CCC#N)c1ccccc1.[Pt+2]	8.5	10.9 µM	17.8 µM		5.91 µM	13.2 µM	22.3 µM	2.82 µM	14.1 µM	71.8 µM	2.18	2.94 µM	3.24 µM		2.25 µM	3.39 µM	3.09 µM	1.45 µM	2.7 µM	3.57 µM
